# Source: patent US6521268B2, “Antibacterial and anti-inflammatory compositions with Inula helenium L. extract and water soluble chitosan” (Jakwang Co., Ltd., priority 2001, dated 2003)
# System: inflammation induced by methyl nicotinate, inner part of the upper arm
# Assay: Anti-inflammatory effect test (anti-inflammation assay), chromameter "a" value
# Assay type: in vivo, human
# Method: The anti-inflammatory effect of the natural cell control carrier comprising 3:1 (wt/wt) water-soluble chitosan and elecampane extract according to the present invention was tested as follows. Twenty healthy male and female subjects with no experience of drug hypersensitivity or drug side effect were selected. Methyl nicotinate was used as an inflammation-inducing material. […] Firstly, the initial “a” value of the inner part of the upper arm was determined with a chromameter (Minolta, CR-300). Then, 1.0% aqueous solution of said composition and 0.1% indometacin aqueous solution were closely patched at the test part for 4 hr. After removing the patch, the test part was washed with pure water. After waiting for 1 hr for the temporary inflammation reaction to disappear, “a” value was measured again with the chromameter. After dropping 80 μL of methyl nicotinate diluted to 3 mM with pure water in a filter paper disk with 1 cm of diameter, it was applied to each test part for 1-2 min. After removing the filter paper disk, each test part was washed sufficiently with pure water. After 30 min, “a” value was measured with the chromameter. The anti-inflammatory effect of the natural cell control carrier according to the present invention, indometacin and methyl nicotinate was calculated from the “a” values.
smiles,measurement,setting,value
COc1ccc2c(c1)c(CC(=O)O)c(C)n2C(=O)c1ccc(Cl)cc1 [indometacin],Anti-Inflammatory Effect (%),"calculated from ""a"" values, 1.0% carrier or 0.1% indometacin aqueous solution",41.14%
same,"""a"" Value (n = 20)","chromameter, 30 min after 3 mM methyl nicotinate, 4 hr patch pre-treatment (1.0% carrier or 0.1% indometacin aqueous solution)",6.38
